Assay results reported in patent publication US11279733B2, “Peptide antibiotics” (priority 2017, dated 2022).
In brackets after ≈: the same amount, converted by molar mass. Read-outs that look alike come from different tables or passages of the source. Positions of bridges follow the written chain, without caps; N, C: chain ends. Non-standard residues stand in square brackets, D forms with d. Residues, ends and D or L forms follow the SMILES beside them. *: point of attachment. Cholyl = C[C@H](CCC(=O)*)[C@H]1CC[C@H]2[C@@H]3[C@H](O)C[C@@H]4C[C@H](O)CC[C@]4(C)[C@H]3C[C@H](O)[C@]12C; Benzoyl(4-OPh) = O=C(c1ccc(Oc2ccccc2)cc1)*; Benzoyl(4-Ph) = O=C(c1ccc(-c2ccccc2)cc1)*; Decanoyl(3R-OH) = CCCCCCC[C@@H](O)CC(=O)*; Butanoyl(4-OPh) = O=C(CCCOc1ccccc1)*; dOrn = NCCC[C@@H](N)C(=O)O; dDab = NCC[C@@H](N)C(=O)O; Dab = NCC[C@H](N)C(=O)O; Dap = NC[C@H](N)C(=O)O; X5 = O=C(CCCCCCCO)*

Assays:
A. baumannii ATCC 19606 = test system: A. baumannii ATCC 19606
Outline: (§1)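 Mid-log cultures grown in Mueller Hinton broth at 37° C were tested by 2-fold broth microdilution at 5×10^5 CFU/mL final. Compounds were dissolved in water and tested over a final range of 32 to 0.015 μg/mL.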

A. baumannii GN_093 PmxR = test system: A. baumannii GN_093 PmxR
Outline: as §1

E. coli ATCC 25922 = test system: E. coli ATCC 25922
Outline: as §1

K. pneumoniae ATCC 13883 = test system: K. pneumoniae ATCC 13883
Outline: as §1

[1] = test system: K. pneumoniae ATCC 700603, MDR
Outline: as §1

[2] = test system: K. pneumoniae ATCC BAA-2146, NDM-1 pos
Outline: as §1

[3] = test system: K. pneumoniae GN_102 PmxR
Outline: as §1

[4] = test system: K. pneumoniae GN_106, PmxR
Outline: as §1

P. aeruginosa ATCC 27853 = test system: P. aeruginosa ATCC 27853
Outline: as §1

[5] = test system: P. aeruginosa GN_043, PmxR
Outline: as §1

[6] = test system: P. aeruginosa GN_105, PmxR
Outline: as §1

[7] = test system: S. aureus ATCC 25923, MSSA
Outline: as §1

in vitro [8] = conditions: human
Outline: (§2)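 Fluorescence read-out (excitation 560, emission 590) after a 2 h, 37 °C incubation with 5 μM resazurin, following 24 h compound treatment of cells plated at 4000 per well. CC50 values come from fitting dose–response curves of growth inhibition.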

in vitro [9] = conditions: human; remark: listed apart in the source
Outline: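 HK2 cells were seeded at 2000 per well in DMEM/F12 with 10% FBS and left to attach for 24 h at 37 °C, 5% CO2. They were then exposed for 24 h to 3-fold peptide dilutions starting from 600 μM solutions in quadruplicate. LDH release was read at 450 nm, and CC50 was fitted from dose-response curves.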

in vitro [10] = conditions: human; remark: listed apart in the source
Outline: as §2

Row | SMILES | MIC A. baumannii ATCC 19606 (A. baumannii ATCC 19606; ATCC 19606) | MIC A. baumannii GN_093 PmxR (A. baumannii GN_093 PmxR; GN 093 PmxR) | MIC E. coli ATCC 25922 (E. coli ATCC 25922; ATCC 25922) | MIC K. pneumoniae ATCC 13883 (K. pneumoniae ATCC 13883; ATCC 13883) | MIC K. pneumoniae ATCC 700603, MDR ([1]; ATCC 700603) | MIC K. pneumoniae ATCC BAA-2146, NDM-1 pos ([2]; ATCC BAA-2146) | MIC K. pneumoniae GN_102 PmxR ([3]; GN 102 PmxR) | MIC K. pneumoniae GN_106, PmxR ([4]; GN 106, PmxR) | MIC P. aeruginosa ATCC 27853 (P. aeruginosa ATCC 27853; ATCC 27853) | MIC P. aeruginosa GN_043, PmxR ([5]; P. aeruginosa GN_043, PmxR) | MIC P. aeruginosa GN_105, PmxR ([6]; GN 105, PmxR) | MIC S. aureus ATCC 25923, MSSA ([7]; ATCC 25923) | CC50 at 24 h (in vitro [8]) | CC50 at 24 h (in vitro [9]) | CC50 at 24 h (in vitro [10]) | also measured
1 | CC(C)C[C@@H]1NC(=O)[C@H](CCN)NC(=O)[C@H](CCN)NC(=O)[C@H](Cc2ccccc2)NC(=O)[C@@H](CC(C)C)NC(=O)[C@H](CCN)NC(=O)[C@@H](NC(=O)[C@@H](CCN)NC(=O)c2ccc(Oc3ccccc3)cc2)CCNC1=O [compound 6519, Ph-4-OPhCO-D-Dab-cyc[L-Dab-L-Dab-D-Leu-L-Phe-L-Dab-L-Dab-L-Leu]] ({Benzoyl(4-OPh)}-[dDab][Dab][Dab][dL]F[Dab][Dab]L; lactam 2-C) | >32 µg/mL | 32 µg/mL (≈ 29.9 µM) | 2 µg/mL (≈ 1.87 µM) | 16 µg/mL (≈ 14.9 µM) | 8 µg/mL (≈ 7.47 µM) | 16 µg/mL (≈ 14.9 µM) | >32 µg/mL | 32 µg/mL (≈ 29.9 µM) | 2 µg/mL (≈ 1.87 µM) | 1 µg/mL (≈ 0.934 µM) | 4 µg/mL (≈ 3.74 µM) | 32 µg/mL (≈ 29.9 µM) | > 300 µM | 163 µM | > 300 µM | –
2 | CC(C)C[C@@H]1NC(=O)[C@H](CCN)NC(=O)[C@H](CCN)NC(=O)[C@H](CC(C)C)NC(=O)[C@@H](Cc2ccccc2)NC(=O)[C@H](CCN)NC(=O)[C@@H](NC(=O)[C@@H](CCN)NC(=O)CC[C@@H](C)[C@H]2CC[C@H]3[C@@H]4[C@H](O)C[C@@H]5C[C@H](O)CC[C@]5(C)[C@H]4C[C@H](O)[C@]23C)CCNC1=O [compound 5016, cholic acid-D-Dab-cyc[L-Dab-L-Dab-D-Phe-L-Leu-L-Dab-L-Dab-L-Leu]] (Cholyl-[dDab][Dab][Dab][dF]L[Dab][Dab]L; lactam 2-C) | 16 µg/mL (≈ 12.7 µM) | 8 µg/mL (≈ 6.33 µM) | 8 µg/mL (≈ 6.33 µM) | 4 µg/mL (≈ 3.16 µM) | 4 µg/mL (≈ 3.16 µM) | 8 µg/mL (≈ 6.33 µM) | 8 µg/mL (≈ 6.33 µM) | 16 µg/mL (≈ 12.7 µM) | 4 µg/mL (≈ 3.16 µM) | – | 4 µg/mL (≈ 3.16 µM) | 32 µg/mL (≈ 25.3 µM) | 48 µM | 17 µM | 46 µM | MIC P. aeruginosa GN_043, PmxR [5]: 4 µg/mL (≈ 3.16 µM)
3 | CC(C)C[C@@H]1NC(=O)[C@H](CCN)NC(=O)[C@H](CCN)NC(=O)[C@H](Cc2ccccc2)NC(=O)[C@@H](CC(C)C)NC(=O)[C@H](CCN)NC(=O)[C@@H](NC(=O)[C@@H](CCN)NC(=O)CCCCCCCO)CCNC1=O [compound 6514, 8OH-nC7CO-D-Dab-cyc[L-Dab-L-Dab-D-Leu-L-Phe-L-Dab-L-Dab-L-Leu]] (X5-[dDab][Dab][Dab][dL]F[Dab][Dab]L; lactam 2-C) | – | – | – | – | – | – | – | – | – | 4 µg/mL (≈ 3.94 µM) | – | – | > 300 µM | > 300 µM | > 300 µM | MIC A. baumannii ATCC 19606 (A. baumannii ATCC 19606; A. baumannii ATCC 19606): >32 µg/mL; MIC A. baumannii GN_093 PmxR (A. baumannii GN_093 PmxR; A. baumannii GN_093 PmxR): >32 µg/mL; MIC E. coli ATCC 25922 (E. coli ATCC 25922; E. coli ATCC 25922): >32 µg/mL; MIC K. pneumoniae ATCC 13883 (K. pneumoniae ATCC 13883; K. pneumoniae ATCC 13883): >32 µg/mL; MIC K. pneumoniae ATCC 700603, MDR ([1]; K. pneumoniae ATCC 700603, MDR): >32 µg/mL; MIC K. pneumoniae ATCC BAA-2146, NDM-1 pos ([2]; K. pneumoniae ATCC BAA-2146, NDM-1 pos): >32 µg/mL; MIC K. pneumoniae GN_102 PmxR ([3]; K. pneumoniae GN_102 PmxR): >32 µg/mL; MIC K. pneumoniae GN_106, PmxR ([4]; K. pneumoniae GN_106, PmxR): >32 µg/mL; MIC P. aeruginosa ATCC 27853 (P. aeruginosa ATCC 27853; P. aeruginosa ATCC 27853): 8 µg/mL (≈ 7.87 µM); MIC P. aeruginosa GN_105, PmxR ([6]; P. aeruginosa GN_105, PmxR): >32 µg/mL; MIC S. aureus ATCC 25923, MSSA ([7]; S. aureus ATCC 25923, MSSA): >32 µg/mL
4 | CC(C)C[C@@H]1NC(=O)[C@H](CCN)NC(=O)[C@H](CCN)NC(=O)[C@H](Cc2ccccc2)NC(=O)[C@@H](CC(C)C)NC(=O)[C@H](CCN)NC(=O)[C@@H](NC(=O)[C@@H](CCN)NC(=O)CCCOc2ccccc2)CCNC1=O [compound 6521, 4-phenoxybutanoic acid-D-Dab-cyc[L-Dab-L-Dab-D-Leu-L-Phe-L-Dab-L-Dab-L-Leu]] ({Butanoyl(4-OPh)}-[dDab][Dab][Dab][dL]F[Dab][Dab]L; lactam 2-C) | >32 µg/mL | >32 µg/mL | 8 µg/mL (≈ 7.72 µM) | 32 µg/mL (≈ 30.9 µM) | 16 µg/mL (≈ 15.4 µM) | 16 µg/mL (≈ 15.4 µM) | 16 µg/mL (≈ 15.4 µM) | 32 µg/mL (≈ 30.9 µM) | 2 µg/mL (≈ 1.93 µM) | 2 µg/mL (≈ 1.93 µM) | 16 µg/mL (≈ 15.4 µM) | >32 µg/mL | > 300 µM | 290 µM | > 300 µM | –
5 | CC(C)C[C@@H]1NC(=O)[C@H](CCN)NC(=O)[C@H](CCN)NC(=O)[C@H](Cc2ccccc2)NC(=O)[C@@H](CC(C)C)NC(=O)[C@H](CCN)NC(=O)[C@@H](NC(=O)[C@@H](CCN)NC(=O)c2ccc(-c3ccccc3)cc2)CCNC1=O [compound 6518, Ph-4-PhCO-D-Dab-cyc[L-Dab-L-Dab-D-Leu-L-Phe-L-Dab-L-Dab-L-Leu]] ({Benzoyl(4-Ph)}-[dDab][Dab][Dab][dL]F[Dab][Dab]L; lactam 2-C) | >32 µg/mL | >32 µg/mL | 2 µg/mL (≈ 1.9 µM) | 16 µg/mL (≈ 15.2 µM) | 8 µg/mL (≈ 7.59 µM) | 16 µg/mL (≈ 15.2 µM) | >32 µg/mL | 32 µg/mL (≈ 30.4 µM) | 2 µg/mL (≈ 1.9 µM) | 2 µg/mL (≈ 1.9 µM) | 2 µg/mL (≈ 1.9 µM) | 32 µg/mL (≈ 30.4 µM) | > 300 µM | 180 µM | ≥ 300 µM | –
6 | CCCCCCC[C@@H](O)CC(=O)N[C@H](CCCN)C(=O)N[C@H]1CCNC(=O)[C@H](CC(C)C)NC(=O)[C@H](CCN)NC(=O)[C@H](CCN)NC(=O)[C@H](Cc2ccccc2)NC(=O)[C@@H](CC(C)C)NC(=O)[C@H](CCN)NC1=O [compound 6428, 3(R)OH-nC9CO-D-Orn-cyc[L-Dab-L-Dab-D-Leu-L-Phe-L-Dab-L-Dab-L-Leu]] ({Decanoyl(3R-OH)}-[dOrn][Dab][Dab][dL]F[Dab][Dab]L; lactam 2-C) | 32 µg/mL (≈ 30.2 µM) | 16 µg/mL (≈ 15.1 µM) | 16 µg/mL (≈ 15.1 µM) | 16 µg/mL (≈ 15.1 µM) | 8 µg/mL (≈ 7.56 µM) | 16 µg/mL (≈ 15.1 µM) | 2 µg/mL (≈ 1.89 µM) | 4 µg/mL (≈ 3.78 µM) | 4 µg/mL (≈ 3.78 µM) | 4 µg/mL (≈ 3.78 µM) | 4 µg/mL (≈ 3.78 µM) | 32 µg/mL (≈ 30.2 µM) | > 300 µM | 137 µM | > 300 µM | –
7 | CCCCCCC[C@@H](O)CC(=O)N[C@H](CCN)C(=O)N[C@H]1CNC(=O)[C@H](CC(C)C)NC(=O)[C@H](CCN)NC(=O)[C@H](CCN)NC(=O)[C@H](CC(C)C)NC(=O)[C@@H](CC(C)C)NC(=O)[C@H](CCN)NC1=O [compound 633, 3(R)OH-nC9CO-D-Dab-cyc[L-Dap-L-Dab-D-Leu-L-Leu-L-Dab-L-Dab-L-Leu]] ({Decanoyl(3R-OH)}-[dDab][Dap][Dab][dL]L[Dab][Dab]L; lactam 2-C) | >32 µg/mL | >32 µg/mL | 16 µg/mL (≈ 16.1 µM) | >32 µg/mL | 32 µg/mL (≈ 32.1 µM) | 8 µg/mL (≈ 8.03 µM) | >32 µg/mL | >32 µg/mL | 1 µg/mL (≈ 1 µM) | 16 µg/mL (≈ 16.1 µM) | >32 µg/mL | >32 µg/mL | > 300 µM | 104 µM | > 300 µM | –
